These results are taken from paper PMC9072872, “Structure-based design of nucleoside-derived analogues as sulfotransferase inhibitors” (RSC Advances, 2019).

The target in this assay is T1, HS2ST (Gallus gallus, UniProt Q76KB1).
T1 construct: made in house; host or cells: E. coli Rosetta-gami (DE3)
T1 sequence (Q76KB1 1-356): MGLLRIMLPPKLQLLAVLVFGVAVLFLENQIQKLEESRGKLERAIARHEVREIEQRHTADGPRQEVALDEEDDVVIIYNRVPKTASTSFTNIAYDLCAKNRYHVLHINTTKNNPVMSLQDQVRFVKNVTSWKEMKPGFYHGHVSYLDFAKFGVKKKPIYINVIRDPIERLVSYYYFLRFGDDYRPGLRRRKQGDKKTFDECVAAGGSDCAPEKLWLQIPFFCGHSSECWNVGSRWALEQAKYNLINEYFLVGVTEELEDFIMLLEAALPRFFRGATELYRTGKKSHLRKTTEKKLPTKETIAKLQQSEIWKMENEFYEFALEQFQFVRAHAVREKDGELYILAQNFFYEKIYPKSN
Briefly: Microfluidic mobility shift sulfation assay, HS2ST (fluorescent hexasaccharide substrate). It is filed as biochemical, chicken. The conditions noted are these: for IC50: read-out: IC50 against HS2ST. The method, then:
Compounds were initially screened at 400 μM in the presence 20 nM HS2ST and 0.1 μM TPST1 respectively.
Fig. 4 Summary of enzymatic inhibition assays against HS2ST and TPST1. (A) Enzymatic analysis of HS2ST1 inhibition by a panel of PAP- and PAPS-mimetic compounds. […] HS2ST sulfotransferase activity was assayed using a fluorescent hexasaccharide substrate (2 μM) and normalised to DMSO (4% v/v) or buffer control. Data shown is mean and SD of 4 repeat experiments. (B) Full dose–response curves for selected compounds. […] HS2ST activity calculated as previously described. Data from two independent experiments are combined. (C) Enzymatic analysis of TPST1 inhibition by a panel of PAP- and PAPS-mimetic compounds. […] TPST1 activity was measured using fluorescently-labelled CC4-tide (2 μM) and normalised to DMSO (4% v/v) or buffer control. (D) Full dose–response curves for selected compounds. […] TPST1 activity was measured using CC4-tide and normalised to DMSO or buffer controls as previously described. The data shown is from duplicate experiments.
N-sulfated, fluorescein-tagged HS2ST1 hexasaccharide glycan substrate (GlcNS-GlcA- GlcNS-IdoA-GlcNS-GlcA-fluorescein, where S=sulfation) containing L-IdoA at the third residue from the reducing end (to which a linker and the fluorophore were conjugated) was purchased from GLY CAN therapeutics. TPST1 peptide substrate (CC4-tide, 5-FAM-EDFED YEFDG-CONH2) was synthesised using solid-phase Fmoc chemistry (Pepceuticals, Leicester, UK). All standard laboratory biochemicals, were purchased from Sigma, and were of the highest analytical quality.
5'-phosphosulfate, lithium salt hydrate, PAP (adenosine 3',5'-diphosphate, disodium salt), CoA (coenzymeA, sodium salt), ATP (adenosine 5’-triphosphate, disodium salt hydrate) were all purchased from Sigma and stored at -80 °C to minimise degradation.
Recombinant Protein Production and SDS-PAGE […]
Microfluidics-Based Sulfation Assay
Non-radioactive microfluidic mobility shift peptide and carbohydrate sulfation assays were performed in solution with a 12-sipper chip coated with SR8 reagent and a Perkin Elmer EZ Reader II system 8 using an EDTA-based separation buffer and real-time kinetic evaluation of substrate sulfation. Pressure and voltage settings were adjusted manually to afford optimal separation of the sulfated product and non-sulfated substrate, with a sample (sip) volume of 20 nL, and total assay tim es appropriate for the experiment. The fluorophore tagged TPST1 peptide substrate and HS2ST1 glycan substrate where detected by the EZ Reader via LED-induced fluorescence.
Individual sulfation assays were assembled in a 384 well plate in a volume of 80 µL in the presence of […]
and 5 mM MgCl2. The degree of substrate sulfation was directly calculated using EZ Reader software by measuring the sulfo-product:non-sulfated substrate ratio at each time-point. The act ivity of the sulfotransferase enzymes in the presence of biochemicals and small molecule inhibitors was quantified in ‘kinetic mode’ by monitoring the amount of sulfated product generated over the assay time, relative to control assay with no additional inhibitor molecule (DMSO or buffer control). Data was normalized with respect to these control assays, with sulfate incorporation into the substr ate limited to ~ 20% to prevent depletion of PAPS and to ensure assay linearity. K m and IC50 values were determined by non-linear regression analysis with GraphPad Prism software. […]

The term IC50 denotes the concentration at which inhibition is half-maximal. In the case of `Nc1ncnc2c1ncn2[C@H]1C[C@H](OP(=O)(O)O)[C@@H](COP(=O)(O)O)O1` [2′-deoxy-PAP], the IC50 came out at 12.7 µM.

Take `Nc1ncnc2c1ncn2[C@H]1C[C@H](O)[C@@H](Cn2cc(P(=O)(O)O)nn2)O1` [Compound 11]: under “compound 400 μM, HS2ST 20 nM, PAPS 5 μM”, the “inhibitory activity against HS2ST” value is “inactive”.

As to `Nc1ncnc2c1ncn2[C@H]1C[C@H](OP(=O)(O)O)[C@@H](Cn2cc(P(=O)(O)O)nn2)O1` [Compound 12], the IC50 was in the range of 100 to 300 µM.

In the case of `Nc1ncnc2c1ncn2[C@H]1C[C@H](O)[C@@H](Cn2cc(P(=O)(O)OCc3ccccc3)nn2)O1` [Compound 13], the IC50 lay within 100 to 300 µM.
